Assay results reported in PMC9961652 (International Journal of Molecular Sciences, 2023).
Where two headings read alike, the source gives them in different places.

What was measured:
[1] = tested on: RhoA; test: RhoA-GTP formation, GST-Rhotekin effector pull-down assay in collagen-stimulated platelets; assay type: cell-based, human; details: 20 µM, 2 min pre-incubation; collagen 1 µg/mL for 4 min
Description: Next, the ability of the six compounds to suppress RhoA activity in platelets was assessed by subjecting them to a GST (Glutathione-S-transferase)-Rhotekin effector pull-down assay. The compounds were incubated with washed human platelets for 2 min before being stimulated with 1 µg/mL collagen. The analogs inhibited the activation of RhoA at the 20 µM concentration (Figure 2A,B). […] After confirming that these analogs could prevent RhoA activation and the phosphorylation of the MLC, their ability to disrupt complex-formation between RhoA and LARG was tested. […] These findings indicate that the active analogs inhibit RhoA activation by disrupting the binding between RhoA and its GEF.
(A,B) Washed human platelets were incubated with collagen (1 µg/mL) for 4 min, and the levels of RhoA-GTP formation were quantified with a GST-Rhotekin effector pull-down assay. The platelets were pre-incubated with 20 µM UC-177618, UC-177619, UC-177628, UC-177629, […], or […] for 2 min before being stimulated with collagen. The addition of ice-cold lysis buffer terminated the reaction. […] Relative amounts of the GTP-bound form of RhoA were quantified with densitometry measurements of total RhoA (T-RhoA) and normalized to untreated platelets. (C,D) The addition of 20 µM of active Rhosin-related compounds to washed human platelets 2 min before stimulation with collagen blocked the phosphorylation of the myosin light chain (p-MLC). The reactions were terminated after 4 min by adding 4x Laemmli sample buffer. The samples were processed for Western blotting and probed for MLC and p-MLC, and phosphorylation was quantified by measuring the densitometry of total MLC (T-MLC). The differences between DMSO- and Rhosin-related compounds were analyzed with t-test, and the results are shown as means ± SDs of three independent experiments. (* p < 0.05, ** p < 0.01, *** p < 0.001, and **** p < 0.0001).
The relative levels of RhoA-GTP in washed human platelets were quantified with effector domains GST-Rhotekin pull-down assays as previously reported. A volume of 250 µL of washed human platelets (2.5 × 10^8/mL) was pre-warmed to 37 °C along with the compounds or DMSO (0.1%) for 2 min before being stimulated with collagen (1 µg/mL). The reactions were terminated 4 min after collagen stimulation by adding ice-cold lysis buffer (20 mM Tris·HCl (pH 7.6), 100 mM NaCl, 1% Triton X-100, 0.2% Sodium Deoxycholate, 10 mM MgCl2, 1 mM dithiothreitol, 1x protease inhibitor cocktail, and 1x phosphatase inhibitor cocktail). The supernatants were collected and subjected to the GST-Rhotekin pull-down assay. The total cell lysates were also blotted in parallel. GTP-bound RhoA was quantitatively detected with Western blotting using an anti-RhoA antibody. The relative amounts of RhoA were quantified with densitometry measurements and normalized to the untreated platelets.

[2] = tested on: washed human platelets; test: Collagen-induced platelet aggregation, light transmission aggregometry (Born method); assay type: cell-based; details: for IC50: Homo sapiens, collagen-induced platelet aggregation, compounds without IC50 determination estimated from percent inhibition at 20 µM, read-out: IC50 (SAR table); for IC50 / activity at 20 µM: Platelet; for activity at 20 µM: compound 20 µM, washed human platelets, means ± SDs of three experiments, 100% = agonist alone
Description: Light transmission aggregometry, i.e., the Born method, was used to determine in vitro antiplatelet aggregation activity using collagen as the agonist for platelet aggregation. Collagen was selected as the agonist, since it is the most thrombogenic component of the subendothelial layer. Collagen also serves as a substrate for platelet adhesion and as an inducer of platelet activation.
All experiments using human blood from healthy volunteers were performed according to the protocols approved by the Institutional Review Board at Cincinnati Children’s Hospital Medical Center, Cincinnati, Ohio. Each volunteer was required to sign an informed consent form approved by the IRB. Procedures for drawing human blood, isolating platelet-rich plasma (PRP), and preparing washed platelet suspensions were the same as those previously reported. […] PRP was obtained by means of the centrifugation of blood at 1400 rpm for 15 min at room temperature. PRP was centrifuged at 4000 rpm for 10 min at room temperature, and the platelet pellet was resuspended in HEPES Tyrode’s solution (pH 7.4) without calcium. Platelets were counted using Hemavet 950FS (Drew Scientific, Oxford, CT, USA), and the count was adjusted to 2.5 × 10^8/mL for aggregation studies.
The in vitro antiplatelet activity of the compounds was assayed on washed human platelets using light transmission aggregometry. Platelet aggregation was performed using a 4-channel Lumi-aggregometer (Chronolog, PA, USA) at 37 °C and stirring speed of 900 rpm. A volume of 250 µL of washed human platelets (2.5 × 10^8/mL) was pre-warmed to 37 °C along with the compounds or DMSO (0.1%) for 2 min before the addition of agonists such as collagen, AA, U46619 (a stable synthetic analog of thromboxane A2), ADP, and thrombin. For ATP secretion, platelets were pre-incubated with a luciferin/luciferase kit (Chrono-lume®) for 30 s at 37 °C before the addition of the agonist. The reactions were allowed to proceed for at least 4 min, and the results of platelet aggregation and ATP secretion were determined using Aggrolink software. Platelet aggregation was expressed as the maximum change in the light transmission, where the 100% value corresponded to treatment with the agonist alone. Compounds were evaluated in triplicate at nine compound concentrations ranging from 50 µM to 1 µM.

[3] = tested on: washed human platelets; test: Wash-out reversibility of inhibition of collagen-induced platelet aggregation; assay type: cell-based
Description: The reversible inhibition of Rhosin in collagen-induced platelet aggregation was assessed with similar wash-out experiments, and this reversible nature of Rhosin makes it a valuable antiplatelet drug candidate (Supporting Information Figure S4A,B). After confirming the structures of the above six active analogs, similar wash-out experiments were performed to compare the reversible function of the active analogs with Rhosin reversibility.

[4] = target: T1, RhoA-LARG interaction (Homo sapiens, UniProt P61586); test: In vitro complex-formation assay of RhoA with LARG DH-PH domain; assay type: binding; details: 20 µM; pull-down assay conditions, 4 °C, 1 h
T1 construct: 100 ng of purified full-length RhoA
Description: (A) A complex-formation assay tested the inhibitory effects of 20 µM UC-177618 and UC-177619 on RhoA interaction with the LARG DH-PH domain. […] After incubating the compound-RhoA-LARG mixture at 4 °C for 1 h, the beads associated with RhoA were detected with anti-RhoA Western blotting. (B,C) Top view of the predicted structural contacts of UC-177618 and UC-177619 in the binding pocket around the Trp58 residue of RhoA.
(A) A complex-formation assay tested the inhibitory effects of R-G04 and S-G04 on RhoA interaction with the LARG DH-PH domain. MBP-(His)6-tagged LARG (100 ng) was immobilized on Amylose beads. Binding buffer containing full-length RhoA (100 ng) was pre-incubated with different concentrations of R-G04 (25 µM or 50 µM), and S-G04 (5 µM or 10 µM) was added to the beads. After incubating the compound-RhoA-LARG mixture at 4 °C for 1 h, the beads associated with RhoA were detected with anti-RhoA Western blotting. (B) Top view of the predicted structural contacts of R-G04 and S-G04 in the binding pocket around the Trp58 residue of RhoA.
In total, 100 ng of purified MBP (Maltose-binding protein)-(His)6-tagged LARG DH-PH was immobilized on 20 µL of suspended amylose beads (No. E8021S; New England Biolabs Inc., Ipswich, MA, USA) by incubating them in an orbital shaker at 4 °C for 30 min in binding buffer (20 mM Tris·HCl (pH 7.6), 100 mM NaCl, 0.01% Triton X-100, 5mM EDTA, and 5 mM MgCl2). The compounds were added to the binding buffer containing 100 ng of purified full-length RhoA and pre-incubated at 4 °C for 30 min under constant agitation. The Amylose beads bound to LARG were washed thrice with binding buffer to get rid of unbound LARG, and the pre-incubated compound-RhoA mixture was added to the beads. This LARG-compound-RhoA mixture was incubated in the orbital shaker at 4 °C for 1 h. The beads were washed three times, and the amount of RhoA protein co-precipitated with the MBP-fusion-bound beads was detected with anti-RhoA Western blotting.

[5] = read-out: % Platelet Aggregation, Collagen (1 µg/mL)
[6] = read-out: % Platelet Aggregation, Collagen (5 µg/mL)

T1 sequence (P61586 whole entry, the tested form may be a part): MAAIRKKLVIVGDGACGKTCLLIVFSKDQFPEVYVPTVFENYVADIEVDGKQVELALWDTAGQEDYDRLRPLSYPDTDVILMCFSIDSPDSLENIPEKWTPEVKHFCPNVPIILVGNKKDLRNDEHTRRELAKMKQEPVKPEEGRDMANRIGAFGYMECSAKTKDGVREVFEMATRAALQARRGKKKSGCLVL

| IC50 [2] | LARG binding to RhoA [4] | SMILES | RhoA-GTP formation [1] | activity at 20 µM [2, 5] | activity at 20 µM [2, 6] | reversibility of inhibitory effect after wash-out [3] | activity in collagen-induced platelet aggregation (SAR statement) ([2]; relative to the quinoline analogs) |
| --- | --- | --- | --- | --- | --- | --- | --- |
| 1500 nM | inhibit RhoA-LARG interaction | O=C(NNc1ccnc2c(C(F)(F)F)cccc12)c1ccc(Cl)c(Cl)c1 [UC-177618] | inhibited RhoA-GTP formation | 5 ± 1.7% | 10.2 ± 4.1% | entirely reversible |  |
| 820 nM | inhibit RhoA-LARG interaction | O=C(NNc1ccnc2cc(Cl)ccc12)c1ccc(Cl)c(Cl)c1 [UC-177619] | inhibited RhoA-GTP formation | 9.3 ± 3.5% | 12 ± 2.1% | entirely reversible | slightly better potency |
